The target in assay [1] is T1, β-lactamase CTX-M-14 (Klebsiella pneumoniae, UniProt A0A0H3H219).
T1 construct: gene KPHS_p301310
As to the kind of experiment: time-resolved serial crystallography, formed in situ from Ser70-bound boric acid and glycerol (occupancy […]); IC50 is for boric acid combined with glycerol. In kind it is biochemical.

Assay [2] deals with T1, β-lactamase CTX-M-14. The assay can be described thus: time-resolved serial crystallography (bound to Ser70, occupancy up to […]); IC50 by photometric cefotaxime hydrolysis assay. In kind it is biochemical.

Molecules are shown by their SMILES.

T1 sequence (A0A0H3H219 entry or part of it): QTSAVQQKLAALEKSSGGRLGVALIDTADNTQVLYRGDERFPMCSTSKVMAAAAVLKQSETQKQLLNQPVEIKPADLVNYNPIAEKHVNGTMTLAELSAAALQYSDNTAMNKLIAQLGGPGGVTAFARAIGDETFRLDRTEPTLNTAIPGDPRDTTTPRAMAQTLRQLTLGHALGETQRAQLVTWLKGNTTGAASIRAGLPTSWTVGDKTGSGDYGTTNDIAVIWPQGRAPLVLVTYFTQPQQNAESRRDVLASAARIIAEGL

As a reminder, the IC50 is the point on the concentration scale where inhibition reaches its midpoint. On to `OCC1COB(O)O1` (racemic) [GBE, glycerol boric acid diester], for which, on β-lactamase CTX-M-14 [1], the half-maximal inhibitory concentration (IC50) stood at 3.1 ± 0.4 mM. Consider `OB(O)O` [BAB, boric acid], for which, at β-lactamase CTX-M-14 [2], the half-maximal inhibitory concentration (IC50) stood at 2.9 ± 0.4 mM.

These data come from publication PMC11226702, “Time-resolved crystallography of boric acid binding to the active site serine of the β-lactamase CTX-M-14 and subsequent 1,2-diol esterification” (Communications Chemistry, 2024).
